± gives the expanded uncertainty stated by the source.
Conditions: 101.33 kPa, Liquid, Hot wire method

CC(C)C(C)C [2,3-dimethylbutane]
Conditions | thermal conductivity [W/m/K] | thermal diffusivity [m2/s]
256.81 K | 0.1128 ± 0.00092 | –
257.19 K | 0.1127 ± 0.00092 | –
257.69 K | 0.1125 ± 0.00092 | –
258.09 K | – | 7.87e-08 ± 1.5e-09
258.98 K | – | 7.85e-08 ± 1.5e-09
260.13 K | – | 7.79e-08 ± 1.5e-09
277.98 K | 0.1061 ± 0.00087 | –
278.38 K | 0.1059 ± 0.00087 | –
278.91 K | 0.1057 ± 0.00087 | –
279.29 K | – | 7.3e-08 ± 1.4e-09
280.19 K | – | 7.27e-08 ± 1.4e-09
281.39 K | – | 7.23e-08 ± 1.4e-09
297.63 K | 0.1 ± 0.00083 | –
298.06 K | 0.0999 ± 0.00082 | –
298.6 K | 0.09972 ± 0.00082 | –
298.95 K | – | 6.8e-08 ± 1.3e-09
299.9 K | – | 6.77e-08 ± 1.3e-09
301.09 K | – | 6.74e-08 ± 1.3e-09
318.11 K | 0.09429 ± 0.00078 | –
318.45 K | 0.09416 ± 0.00078 | –
319.06 K | 0.09398 ± 0.00078 | –
319.63 K | – | 6.39e-08 ± 1.2e-09
320.36 K | – | 6.35e-08 ± 1.2e-09
321.67 K | – | 6.31e-08 ± 1.2e-09
336.29 K | 0.08957 ± 0.00075 | –
336.65 K | 0.08944 ± 0.00075 | –
337.3 K | 0.08925 ± 0.00074 | –
337.85 K | – | 6.04e-08 ± 1.2e-09
338.62 K | – | 6.01e-08 ± 1.2e-09
339.96 K | – | 5.97e-08 ± 1.2e-09

CC(C)C(C)(C)C [2,2,3-trimethylbutane]
Conditions | thermal conductivity [W/m/K] | thermal diffusivity [m2/s]
257.27 K | 0.1051 ± 0.00073 | –
257.53 K | 0.105 ± 0.00073 | –
257.81 K | 0.1049 ± 0.00073 | –
258.21 K | – | 7.28e-08 ± 1.4e-09
258.88 K | – | 7.27e-08 ± 1.4e-09
259.58 K | – | 7.26e-08 ± 1.4e-09
277.62 K | 0.1001 ± 0.0007 | –
277.9 K | 0.0999 ± 0.0007 | –
278.17 K | 0.0998 ± 0.0007 | –
278.57 K | – | 6.81e-08 ± 1.3e-09
279.26 K | – | 6.79e-08 ± 1.3e-09
279.93 K | – | 6.77e-08 ± 1.3e-09
296.29 K | 0.09516 ± 0.00067 | –
296.58 K | 0.09508 ± 0.00067 | –
296.87 K | 0.09497 ± 0.00067 | –
297.2 K | – | 6.29e-08 ± 1.2e-09
297.91 K | – | 6.32e-08 ± 1.2e-09
298.61 K | – | 6.3e-08 ± 1.2e-09
313.91 K | 0.09108 ± 0.00065 | –
314.21 K | 0.09098 ± 0.00065 | –
314.52 K | 0.09085 ± 0.00065 | –
314.85 K | – | 6e-08 ± 1.1e-09
315.57 K | – | 6e-08 ± 1.1e-09
316.3 K | – | 5.98e-08 ± 1.1e-09
331.18 K | 0.08718 ± 0.00062 | –
331.48 K | 0.08706 ± 0.00062 | –
331.79 K | 0.0869 ± 0.00062 | –
332.15 K | – | 5.72e-08 ± 1.1e-09
332.87 K | – | 5.7e-08 ± 1.1e-09
333.59 K | – | 5.66e-08 ± 1.1e-09

CCC(C)(C)C [2,2-dimethylbutane]
Conditions | thermal conductivity [W/m/K] | thermal diffusivity [m2/s]
257.48 K | 0.1055 ± 0.001 | –
257.84 K | 0.1053 ± 0.001 | –
258.3 K | 0.1051 ± 0.001 | –
258.74 K | – | 7.54e-08 ± 1.5e-09
259.62 K | – | 7.49e-08 ± 1.5e-09
260.73 K | – | 7.46e-08 ± 1.5e-09
271.49 K | 0.1011 ± 0.001 | –
271.84 K | 0.101 ± 0.001 | –
272.32 K | 0.1008 ± 0.001 | –
272.79 K | – | 7.16e-08 ± 1.4e-09
273.65 K | – | 7.14e-08 ± 1.4e-09
274.78 K | – | 7.08e-08 ± 1.4e-09
279.86 K | 0.09854 ± 0.00098 | –
280.24 K | 0.09842 ± 0.00098 | –
280.73 K | 0.09822 ± 0.00098 | –
281.17 K | – | 6.94e-08 ± 1.4e-09
282.06 K | – | 6.92e-08 ± 1.4e-09
283.23 K | – | 6.85e-08 ± 1.4e-09
297.98 K | 0.09321 ± 0.00093 | –
298.42 K | 0.09307 ± 0.00093 | –
298.91 K | 0.09289 ± 0.00093 | –
299.31 K | – | 6.48e-08 ± 1.3e-09
300.31 K | – | 6.46e-08 ± 1.3e-09
301.44 K | – | 6.41e-08 ± 1.3e-09
319.35 K | 0.08745 ± 0.00088 | –
319.75 K | 0.08729 ± 0.00088 | –
320.28 K | 0.08709 ± 0.00088 | –
320.72 K | – | 6.03e-08 ± 1.2e-09
321.62 K | – | 5.99e-08 ± 1.2e-09
322.83 K | – | 5.95e-08 ± 1.2e-09

CC(C)CC(C)C [2,4-dimethylpentane]
Conditions | thermal conductivity [W/m/K] | thermal diffusivity [m2/s]
256.59 K | 0.1138 ± 0.0011 | –
256.99 K | 0.1135 ± 0.0011 | –
257.3 K | 0.1133 ± 0.0011 | –
257.56 K | – | 7.9e-08 ± 1.6e-09
258.58 K | – | 7.84e-08 ± 1.6e-09
259.37 K | – | 7.76e-08 ± 1.6e-09
276.3 K | 0.1082 ± 0.0011 | –
276.69 K | 0.1079 ± 0.0011 | –
277.04 K | 0.1077 ± 0.0011 | –
277.29 K | – | 7.41e-08 ± 1.5e-09
278.27 K | – | 7.29e-08 ± 1.5e-09
279.16 K | – | 7.28e-08 ± 1.5e-09
296.19 K | 0.1025 ± 0.001 | –
296.63 K | 0.1022 ± 0.001 | –
296.97 K | 0.102 ± 0.001 | –
297.18 K | – | 6.9e-08 ± 1.4e-09
298.25 K | – | 6.83e-08 ± 1.4e-09
299.08 K | – | 6.77e-08 ± 1.4e-09
316.55 K | 0.09692 ± 0.00097 | –
317.01 K | 0.09668 ± 0.00097 | –
317.37 K | 0.09645 ± 0.00097 | –
317.55 K | – | 6.43e-08 ± 1.3e-09
318.67 K | – | 6.39e-08 ± 1.3e-09
319.53 K | – | 6.32e-08 ± 1.3e-09
333.96 K | 0.0924 ± 0.00093 | –
334.43 K | 0.09213 ± 0.00092 | –
334.81 K | 0.09197 ± 0.00092 | –
334.93 K | – | 5.99e-08 ± 1.2e-09
336.06 K | – | 5.98e-08 ± 1.2e-09
336.97 K | – | 5.96e-08 ± 1.2e-09

Source: the NIST ThermoML archive (doi:10.1021/je020125e)
